One data set concerns CYP 2B6. In words: CYP 2B6 induction in treated primary human hepatocytes (RNA assay, enzyme activity assay, LC-MSMS protein assay; FIG. 6). It is filed as cell-based. As to conditions: 72 hours, 3-MC 2 μM. As to the method:
Flow rate was 700 μL/min.
The PB is a prototypical inducer for CYP 2B6, by CAR nuclear receptor activation.

The test system of data set [1] is CYP 1A2. Nature of the data set: RNA assay (mRNA by qRT-PCR, Taqman) for CYP 1A2 in treated human hepatocytes. The class given is cell-based. As to conditions: primary human hepatocytes, 72 hours; 3-MC 2 μM; FIG. 7.
Another data set relates to CYP 3A4. In words: CYP 3A4 induction in treated primary human hepatocytes (RNA assay, enzyme activity assay, LC-MSMS protein assay; FIG. 8). To be noted: 72 hours, 3-MC 2 μM, PB 1 mM.
Data set [2] has as its system CYP 1A2. To be noted: primary human hepatocytes, 72 hours; PB 1 mM, RIF 10 μM; FIG. 7.

Regarding `Cc1ccc2cc3c(ccc4ccccc43)c3c2c1CC3` [3-MC, 3-methylcholanthrene], the “changes in expression of CYP 2B6 (induction)” value in the data set on CYP 2B6 was “induces basal levels”. The “CYP 1A2 RNA level in RNA assay” value in the data set on CYP 1A2 [1] is given as “very high levels of RNA”. For the same molecule, the “changes in expression of CYP 3A4 (induction)” value in the data set with CYP 3A4 is “minimally induces”.
With `CCC1(c2ccccc2)C(=O)NC(=O)NC1=O` [PB, phenobarbital], the “changes in expression of CYP 1A2 (induction)” value with CYP 1A2 [2] is “basal levels of 1A2, if any”. The “changes in expression of CYP 3A4 (induction)” value with CYP 3A4 is reported as “significantly induces”.

Values taken from patent US9546393B2, “Mass spectrometry quantitation of P450 isoforms in hepatocytes” (DH Technologies Development Pte. Ltd., priority 2009, dated 2017).
